# Laboratory results from patent publication US20230189806A1, “FUNGICIDAL COMBINATIONS” (UPL Corporation Limited, priority 2021, published 2023).
# Experiments:
# [1] = tested on: Rhizoctonia solani; assay: Seed treatment bio-efficacy against Rhizoctonia solani in inoculated soybean seeds; type: in vivo; conditions: % control of Rhizoctonia solani
# Method: This effectiveness of all treatments as measured by percent reduction in the target phytopathogen growth, was also evaluated according to Colby's equation as below. E=X+Y−XY/100 Colby's equation If the actual/observed anti-phytopathogenic efficacy of the ipconazole and thiabendazole combination against Rhizoctonia solani growth exceeds the calculated value, then the activity of the combination is super additive, i.e., a synergistic effect exists. In this case, the efficacy which was actually observed must be greater than the value for the expected efficacy (E) calculated from the abovementioned formula. Methodology: Experiments were carried out to evaluate the bio-efficacy of combinations according to the invention of the present disclosure consisting of ipconazole and thiabendazole against Rhizoctonia solani fungi in soybean seeds. The seeds were inoculated with Rhizoctonia solani. The fungicides were tank mixed and applied as seed treatment as described in table 4 below. Spraying volume was 5 ml/kg.
# [2] = tested on: S. sclerotiorum; assay: Paper towel roll method, incidence of S. sclerotiorum in inoculated soybean seeds; type: in vivo, Sclerotinia sclerotiorum; conditions: % control of S. sclerotiorum, 14 days at 25° C.
# Method: Colby Calculation: This effectiveness of all treatments as measured by percent reduction in the target phytopathogen growth, was also evaluated according to Colby's equation as below. E=X+Y−XY/100 Colby's equation If the actual/observed anti-phytopathogenic efficacy of the ipconazole and thiabendazole combination against S. sclerotiorum exceeds the calculated value, then the activity of the combination is super additive, i.e., a synergistic effect exists. In this case, the efficacy which was actually observed must be greater than the value for the expected efficacy (E) calculated from the abovementioned formula. Methodology: To evaluate the incidence of the pathogen S. sclerotiorum in soybean seeds, the laboratory paper towel roll method was used. A paper towel on a flat surface was placed and moistened with water until it was thoroughly damp. A sample size of a total of 100 soybean seeds in rows were placed on the towel. The seeds were inoculated with the fungal pathogen. The seeds were pre-treated as per the treatments mentioned in the Table 5. A second towel was moistened and placed onto the first paper towel, leaving the seeds sandwiched between the two towels. It was observed that air space in between the two towels was maintained, if not, excessive water should be removed. The two towels were rolled with the seeds in-between and place in a sealed container that retained the moisture. The paper rolls were placed upright and incubated for 14 days in an incubator at 25° C. and at a 12 h photoperiod in plastic bags, which is used to maintain humidity during the incubation. For each treatment, 400 seeds were analyzed, 8 repetitions with 50 seeds each repetition.
smiles,measurement,setting,value
CC(C)C1CCC(Cc2ccc(Cl)cc2)C1(O)Cn1cncn1 (centres unmarked) [Ipconazole],Observed efficacy of demethylation inhibitor fungicide (%),[1]; ipconazole 2 g a.i./100 kg seed,49.05%
same,Observed efficacy of demethylation inhibitor fungicide (%),[1]; ipconazole 3 g a.i./100 kg seed,67.92%
same,Observed efficacy of demethylation inhibitor fungicide (%),[2]; ipconazole 5.6 g a.i./100 kg seed,21.3%
same,Observed efficacy of demethylation inhibitor fungicide (%),[2]; ipconazole 7.78 g a.i./100 kg seed,6.7%
c1ccc2[nH]c(-c3cscn3)nc2c1 [Thiabendazole],Observed efficacy of β-tubulin assembly inhibitor fungicide (%),[1]; thiabendazole 12 g a.i./100 kg seeds,43.39%
same,Observed efficacy of β-tubulin assembly inhibitor fungicide (%),[1]; thiabendazole 18 g a.i./100 kg seeds,56.60%
same,Observed efficacy of β-tubulin assembly inhibitor fungicide (%),[2]; thiabendazole 30.9 g a.i./100 kg seed,14.6%
same,Observed efficacy of β-tubulin assembly inhibitor fungicide (%),[2]; thiabendazole 61.9 g a.i./100 kg seed,67.4%
